Where two headings read alike, the source gives them in different places. Bounds are passed on as bounds.

Data on 24 compounds can be found in US9139532B2, “Pyrazolyl guanidine F1F0-atpase inhibitors and therapeutic uses thereof” (Lycera Corporation, priority 2010, dated 2015).

One assay has as its target T1, F1F0-ATPase (Bos taurus, UniProt P13621).
T1 construct: from tissue
In words: Inhibition of F1F0-ATPase activity in synthesizing ATP. Particulars: inhibition of ATP synthesis by F1F0-ATPase; read-out: ATP Syn IC50. Format: biochemical.

In a further assay the test system is Ramos cells. In words: Cytotoxicity in Ramos cells. It counts as cell-based. Particulars: cytotoxicity in Ramos cells, read-out: Ramos Cell EC50.

With `CC(C)CN/C(=N/C(=O)c1cccc(F)c1)Nc1cc(-c2ccc(F)cc2)n[nH]1` [Compound A-257], the IC50 – broadly, the midpoint of a concentration-inhibition curve – at F1F0-ATPase was below 10 µM. Also, in the assay with Ramos cells, the 50% effective concentration (EC50) – broadly, the concentration that produces a half-maximal response – is below 10 µM.

On to `Cc1cc(N/C(=N\C(=O)c2ccc(F)c(F)c2)NC(C)(C)C)n[nH]1` [Compound A-192], for which the IC50 at F1F0-ATPase is below 10 µM. Further, in the assay with Ramos cells, the EC50 is below 10 µM.

With `O=C(/N=C(/NCC1CC1)Nc1cc(-c2cc(F)cc(F)c2)n[nH]1)c1ccc(Cl)c(F)c1` [Compound A-361], the IC50 on F1F0-ATPase was below 10 µM. Also, the EC50 in the assay on Ramos cells is below 10 µM.

On to `CC(C)(C)N/C(=N/C(=O)c1ccc(Cl)cc1)Nc1cc(C(F)F)[nH]n1` [Compound A-54], for which, at F1F0-ATPase, the IC50 was below 10 µM. For the same compound, the EC50 in the assay on Ramos cells (Homo sapiens) was below 10 µM.

With `CC(N/C(=N/C(=O)c1ccc(Cl)cc1)Nc1cc(C(F)(F)F)[nH]n1)c1ccc(Cl)cc1` (stereo not drawn) [Compound A-36], on F1F0-ATPase, the IC50 was below 10 µM. In the assay on Ramos cells (Homo sapiens), the EC50 is below 10 µM.

As to `COCCCN/C(=N/C(=O)c1ccc(F)cc1)Nc1cc(C(F)(F)F)[nH]n1` [Compound A-409], the IC50 at F1F0-ATPase is below 10 µM. Moreover, in the assay on Ramos cells, the EC50 was above 10 µM.

As to `COc1ccc(C(=O)/N=C(\Nc2cc(-c3ccc(F)cc3)[nH]n2)NC(C)(C)C)cc1` [Compound A-539], the IC50 on F1F0-ATPase was below 10 µM. Also, the EC50 in the assay with Ramos cells was below 10 µM.

Take `O=C(/N=C(/NCc1ccc(F)cc1Cl)Nc1cc(C(F)(F)F)[nH]n1)c1ccc(F)c(F)c1` [Compound A-24]: the IC50 at F1F0-ATPase is below 10 µM. The EC50 with Ramos cells (Homo sapiens) is below 10 µM.

As for `CCC(C)(C)N/C(=N/C(=O)c1ccc(C(F)F)cc1)Nc1cc(C(F)(F)F)[nH]n1` [Compound A-74], the IC50 on F1F0-ATPase is below 10 µM. Moreover, the EC50 in the assay on Ramos cells (Homo sapiens) is below 10 µM.

In the case of `CCOCC(C)N/C(=N/C(=O)c1ccc(F)c(F)c1)Nc1cc(-c2ccc(F)cc2)n[nH]1` (stereo not drawn) [Compound A-267], the 50% inhibitory concentration (IC50) at F1F0-ATPase is below 10 µM. In addition, in the assay on Ramos cells, the EC50 was below 10 µM.

As for `CC(C)CNC(=NC(=O)c1ccc(Cl)c(F)c1)Nc1cc(-c2ccc(Cl)cc2)n[nH]1` [Compound A-381], the IC50 at F1F0-ATPase is below 10 µM. Also, the EC50 with Ramos cells (Homo sapiens) was below 10 µM.

For `CC(C)(C)NC(=NC(=O)c1ccccc1)Nc1cc(C(F)(F)F)n[nH]1` [Compound A-544], the 50% inhibitory concentration (IC50) at F1F0-ATPase was below 10 µM. Further, the EC50 in the assay with Ramos cells (Homo sapiens) was below 10 µM.

`CC(C)OCCCNC(=NC(=O)c1ccc(Cl)c(F)c1)Nc1cc(-c2cc(F)cc(F)c2)n[nH]1` [Compound A-344]: the IC50 on F1F0-ATPase was below 10 µM. Further, in the assay with Ramos cells (Homo sapiens), the EC50 was below 10 µM.

As for `CC(C)(C)N/C(=N/C(=O)c1ccc(F)c(F)c1)Nc1cc(-c2cc(F)cc(F)c2)[nH]n1` [Compound A-420], on F1F0-ATPase, the IC50 is below 10 µM. Besides, the EC50 with Ramos cells was below 10 µM.

On to `CCC(C)N/C(=N/C(=O)c1ccc(F)cc1)Nc1cc(-c2ccc(Cl)cc2)n[nH]1` (stereo not drawn) [Compound A-209], for which the IC50 at F1F0-ATPase is below 10 µM. In the assay on Ramos cells (Homo sapiens), the EC50 was below 10 µM.

Take `CCC(C)N/C(=N/C(=O)c1ccc(C(F)(F)F)cc1)Nc1cc(-c2ccc(C)c(F)c2)n[nH]1` (stereo not drawn) [Compound A-334]: the IC50 at F1F0-ATPase is below 10 µM. The EC50 in the assay with Ramos cells was below 10 µM.

Regarding `CC(CC#N)NC(=NC(=O)c1ccc(F)cc1)Nc1cc(-c2ccc(F)cc2)n[nH]1` (stereo not drawn) [Compound A-490], the IC50 at F1F0-ATPase was below 10 µM. The EC50 in the assay on Ramos cells (Homo sapiens) is below 10 µM.

As to `O=C(/N=C(/Nc1cc(F)cc(Cl)c1)Nc1cc(-c2ccc(F)cc2)n[nH]1)c1ccc(F)c(F)c1` [Compound A-441], the IC50 at F1F0-ATPase is below 10 µM. The EC50 in the assay with Ramos cells was below 10 µM.

`Cc1ccc(C(=O)N=C(NCc2ccc(F)cc2Cl)Nc2cc(C(F)(F)F)n[nH]2)cc1` [Compound A-549]: at F1F0-ATPase, the IC50 was below 10 µM. In addition, the EC50 in the assay with Ramos cells (Homo sapiens) is below 10 µM.

`O=C(/N=C1\Nc2cc(-c3ccc(F)cc3)nn2C[C@@H]2CCCN12)c1ccc(F)cc1` [Compound A-569, (S,E)-4-fluoro-N-(2-(4-fluorophenyl)-8,9,9a,10-tetrahydro-4H-pyrazolo[1,5-a]pyrrolo[1,2-e][1,3,5]triazepin-5(7H)-ylidene)benzamide]: the IC50 at F1F0-ATPase is above 10 µM. Besides, the EC50 with Ramos cells (Homo sapiens) is above 10 µM.

In the case of `Cc1cc(N/C(=N\C(=O)c2ccc(F)c(F)c2)NC2CCCC2)n[nH]1` [Compound A-188], the IC50 at F1F0-ATPase was below 10 µM. The EC50 in the assay on Ramos cells was above 10 µM.

On to `CC(C)CN/C(=N/C(=O)c1ccc(F)c(F)c1)Nc1[nH]nc(-c2ccc(Cl)cc2)c1F` [Compound A-161], for which, at F1F0-ATPase, the IC50 is above 10 µM. Moreover, the EC50 with Ramos cells was above 10 µM.

For `O=C(N=C(Nc1cc(C(F)(F)F)n[nH]1)N1CCCC1)c1ccc(C(F)(F)F)cc1` [Compound A-532], the IC50 on F1F0-ATPase was below 10 µM. In addition, the EC50 with Ramos cells (Homo sapiens) was above 10 µM.

`CC(C)(C)N/C(=N/C(=O)c1ccc(Cl)cc1)Nc1cc(-c2ccc(F)cc2)n[nH]1` [Compound A-453]: the IC50 at F1F0-ATPase was below 10 µM. In the assay on Ramos cells, the EC50 was below 10 µM.
